Data as given in US5103014A, “Certain 3,3'-[[[(2-phenyl-4-thiazolyl)methoxy]phenyl]methylene]dithiobis-propano ic acid derivatives” (American Home Products Corporation, priority 1990, dated 1992).
Where two headings read alike, the source gives them in different places.

How the values were obtained:
[1] = test system: LTD4 induced bronchoconstriction; assay: In vivo inhibition of LTD4 induced bronchospasm in guinea pigs (exogenously administered leukotrienes); set-up: species or system guinea pig; details: 10 minutes before induction of bronchospasm (LTD4)
[2] = test system: ovalbumin induced bronchospasm; assay: In vivo inhibition of ovalbumin induced bronchospasm in sensitized guinea pigs (endogenous mediators); set-up: species or system guinea pig; details: 25 mg/kg, intragastrically, 10 minutes before intravenous ovalbumin challenge
Protocol: The assay of this Example measures the in vivo ability of the compounds of the invention to inhibit the bronchospasm induced in guinea pigs by endogenous mediators of the bronchoconstriction.
Male Hartley strain guinea pigs weighing 250-350 g are sensitized to chicken ovalbumin (OA) (10 mg i.p.) on days 1 and 3 and used starting on day 26. The animals are anesthetized with pentobarbital sodium (50 mg/kg, i.p.), bilateral vagotomy is performed, and the jugular vein is cannulated for injection of drugs and the carotid artery for monitoring blood pressure. The trachea is cannulated for artificial ventilation by miniature Starling pump and for indirect measurement of respiratory volume changes as described, infra. Succinylcholine (2 mg/kg, i.v.) is administered to arrest spontaneous respiration. […]
Respiratory volume changes are determined by a calibrated piston whose travel is recorded, via a linear transducer, on a Beckman Dynograph recorder. Maximal bronchoconstrictor volume is determined by clamping off the trachea at the end of the experiment. Overflow volumes at minutes 1, 3 and 5 are obtained from the recorded charts.
Area under the volume overflow curve (AUC) is estimated, using the overflow values at 1, 3 and 5 minutes, and expressed as a percentage of the maximal overflow AUC (equation 1): [formula] […]

[3] = test system: TxB2 synthesis (cyclooxygenase); assay: Inhibition of synthesis of cyclooxygenase oxidation product TxB2 (rat polymorphonuclear leukocytes); assay type: cell-based; details: Leukocyte, rat PMN
Protocol: (§1) Peritoneal PMN are obtained from female Wistar rats (150-250 g) that received an i.p. injection of 6% glycogen (10 ml). After 24 hours, rats are killed by CO2 asphyxiation and peritoneal cells are harvested by peritoneal lavage using Ca^++ and Mg^++ free Hanks' balanced salt solution (HBSS). The peritoneal exudate is centrifuged at 400 g for 10 minutes. After centrifugation, the lavaged fluid is removed and the cell pellet is resuspended in HBSS containing Ca^++ and Mg^++ and 10 mM L-cysteine at a concentration of 2×10^7 cells/ml. To 1 ml portions of cell suspension, test drugs or vehicle are added and incubated at 37° C. for 10 minutes. Following this preincubation, the calcium ionophore (10 μM), A23187, is added together with 0.5 μCi [^14 C] arachidonic acid and further incubated for 10 minutes. The reaction is stopped by the addition of ice cold water (3 ml) and acidification to pH 3.5. Lipoxygenase products are then extracted twice into diethyl ether. The pooled ether extracts are evaporated to dryness under nitrogen and the residue is redissolved in a small volume of methanol and spotted on aluminum backed pre-coated thin layer chromatographic plates. The samples are then co-chromatographed with authentic reference 5,12-diHETE in the solvent system-hexane:ether:acetic acid (50:50:3). After chromatography, the areas associated with 5,12-diHETE standard are identified by autoradiography, cut out and quantitated by liquid scintillation.
The procedure of Example 17 is also employed for the determination of the ability of the compounds of the invention to inhibit the synthesis of the arachidonic acid cyclooxygenase oxidation product TxB2.
In this assay, the procedure of Example 17 is carried out as described. However, in order to determine cyclooxygenase activity, the samples are cochromatographed with authentic reference TxB2 in the solvent system ethyl acetate:formic acid (80:1) and the upper phase of ethyl acetate:isoctane:acetic acid:water (110:50:20:100). After chromatography, the areas associated with TxB2 standard are identified by autoradiography, cut out and quantitated by liquid scintillation techniques.
The results are calculated as in Example 12 and presented below: […]

[4] = test system: 5,12-diHETE synthesis by rat glycogen-elicited polymorphonuclear leukocytes; assay: Inhibition of 5,12-diHETE synthesis by rat glycogen-elicited polymorphonuclear leukocytes; assay type: cell-based; details: Leukocyte, rat PMN
Protocol: This is especially true with respect to 5,12-diHETE, which is also denoted as LTB4 [see Ford-Hitchinson, J. Roy. Soc. Med., 74, 831 (1981)]. The assay of this Example measures the ability of the compounds of the invention to inhibit the synthesis of 5,12-diHETE by rat glycogen-elicited polymorphonuclear leukocytes.
as §1
Results are expressed as the 50% Inhibitory concentration, or as percent inhibition at a given.

[5] = test system: acute inflammatory response (carrageenan paw edema); assay: Rat carrageenan paw edema assay; assay type: in vivo; details: po, 50 mg/kg peroral, 1 hour prior to carrageenan, edema at 3 hours
Protocol: The compounds of the invention are tested in the rat carrageenan paw edema assay to determine their ability to inhibit the acute inflammatory response. 140-180 gm male Sprague-Dawley rats, in groups of 6 animals, are injected subcutaneously in the right paw with 0.1 ml of 1% carrageenan at zero time. Mercury plethysmographic readings (ml) of the paw are made at zero time and 3 hours later. Test compounds are suspended or dissolved in 0.5% methylcellulose and given perorally 1 hour prior to carrageenan administration. The increase in paw volume (edema in ml.) produced by the carrageenan is measured. […] Unpaired Student's t-test is used to determine statistical significance.

[6] = biological target: T1, LTD4 (contraction of isolated guinea pig trachea) (Cavia porcellus, UniProt Q2NNR5); assay: Isolated guinea pig trachea assay, LTD4 antagonist activity; assay type: cell-based
T1 construct: from tissue; host or cells: isolated tracheal rings of male Hartley guinea pigs
T1 sequence (Q2NNR5 1-340): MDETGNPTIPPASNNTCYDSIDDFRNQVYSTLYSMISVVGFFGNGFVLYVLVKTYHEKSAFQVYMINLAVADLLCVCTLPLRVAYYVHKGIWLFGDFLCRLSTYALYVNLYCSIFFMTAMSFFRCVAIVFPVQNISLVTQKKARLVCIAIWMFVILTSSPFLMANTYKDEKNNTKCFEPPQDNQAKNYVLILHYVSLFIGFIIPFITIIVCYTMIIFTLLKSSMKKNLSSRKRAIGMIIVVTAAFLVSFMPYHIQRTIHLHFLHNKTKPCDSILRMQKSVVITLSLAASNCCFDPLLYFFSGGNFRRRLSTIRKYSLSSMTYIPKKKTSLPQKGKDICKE
Protocol: The compounds of the invention are tested in the isolated guinea pig trachea assay to assess their LTD4 antagonist activity. Male Hartley guinea pigs (350-400 g) are euthanized by a blow to the head, the neck is opened and the trachea removed. The trachea is maintained in aerated physiological salt solution, cleared of connective tissue and fat and cut into rings approximately 2 mm in width (usually containing two cartilaginous segments per ring). Two pieces of silk suture are then passed through the lumen of the tracheal ring and are tied around the cartilage, one on each side of the trachealis muscle. The tracheal ring is suspended between a glass hook and a force displacement transducer in a 10 ml organ bath for measurement of isometric tension. Tissues are maintained at 37° C. in aerated (95% O2 /5% CO2) physiological salt solution of the following composition: […] The tracheal rings are maintained at 2 g resting tension and equilibrated for 45 minutes (with frequent washing and readjustment of resting tension). The tracheal rings are first contracted by the addition of carbachol (3×10^-6 M), to determine tissue responsiveness and establish a reference contraction. On attainment of a stable level of contraction (approximately 30 minutes), the tissues are washed several times until baseline tension has been restored and then re-equilibrated for 30 minutes. The tissues are then incubated for 45 minutes with a test antagonist (either 1×10^-6 M or 1×10^-5 M) or 10 μl of an appropriate solvent control (control, non-treated). One tissue in each group serves as the control. Twenty minutes prior to the construction of the LTD4 cumulative concentration-response curve, L-[…]×10^-2 M final bath concentration) is added to inhibit bioconversion of LTD4 to LTE4. Only one LTD4 concentration-response curve is constructed in each tissue. All responses to LTD4 are calculated as a percentage of the reference contraction to carbachol. LTD4 antagonist activity is determined by comparison of the concentration response curves of LTD4 in the presence and absence of antagonist. Assessment of the relative rightward shift of the antagonist treated curve relative to the solvent (control) treated tissue is calculated as a concentration ratio (Eq. A) and used in subsequent calculations to derive an antagonist pKB value (Eqs B&C). In the event that the maximum response to LTD4 is depressed, the EC50 for that particular curve is determined, an "apparent" pKB reported, and the compound reported as "not-competitive."

[7] = biological target: T1, LTD4 (contraction of isolated guinea pig trachea); details: literature value, reference (1); cited from earlier work
[8] = A23187 10 μM, read-out: 50% Inhibitory Concentration (IC50)
[9] = reference compounds, LTD4 concentration-response curve, read-out: pKB (converted)

SMILES: O=S(=O)(Nc1cccc(OCc2csc(-c3ccccc3)n2)c1)C(F)(F)F [Example 3, 1,1,1-Trifluoro-N-[3-[(2-phenyl-4-thiazolyl)methoxy]phenyl]methanesulfonamide]
- ED50 ([1]; Cavia porcellus, intragastrically, read-out: ED50): 2.4 mg/kg
- ED50 ([1]; intragastrically): 3.0 mg/kg
- % Inhibition [2]: 10%
- IC50 [3, 8]: 1.7 µM
- IC50 [4, 8]: 3.2 µM
- inhibition in vivo at 50 mg/kg [5]: 51%

SMILES: O=S(=O)(Nc1cccc(OCc2csc(-c3ccc(F)cc3)n2)c1)C(F)(F)F [Example 9B, 1,1,1-Trifluoro-N-[3-[[2-(4-fluorophenyl)-4-thiazolyl]methoxy]phenyl]methanesulfonamide]
- inhibition in vivo at 25 mg/kg ([1]; Cavia porcellus, intraduodenal, 25 mg/kg, intraduodenally): 100%
- inhibition in vivo at 10 mg/kg ([1]; Cavia porcellus, po, 10 mg/kg, intragastrically): 92%
- inhibition at 10 µM ([3]; 10 μM): 32%
- inhibition at 10 µM ([4]; 10 μM): 64%
- inhibition in vivo at 50 mg/kg [5]: 55%

SMILES: CCCc1c(OCCCCc2nn[nH]n2)ccc(C(C)=O)c1O [LY-171,883, reference compound]
- Kb [6, 9]: 0.126 µM
- pKB (Reference) [7]: 6.65

SMILES: O=S(=O)(Nc1cccc(OCc2ccc3ccccc3n2)c1)C(F)(F)F [Wy-48,252, reference compound]
- Kb ([6]; antagonist concentration 1 × 10^-6 M, read-out: pKB ± S.E. (converted)): 0.0832 µM
- Kb [6, 9]: 0.0363 µM
- pKB (Reference) [7]: 7.70
